Measured values from PMC8262356, “SLC26A6-selective inhibitor identified in a small-molecule screen blocks fluid absorption in small intestine” (JCI Insight, 2021).

Biological target: T1, SLC26A9 (Homo sapiens, UniProt Q7LBE3)
T1 construct: expressed in transfected cells; host or cells: FRT cells coexpressing YFP
T1 sequence (Q7LBE3 1-791): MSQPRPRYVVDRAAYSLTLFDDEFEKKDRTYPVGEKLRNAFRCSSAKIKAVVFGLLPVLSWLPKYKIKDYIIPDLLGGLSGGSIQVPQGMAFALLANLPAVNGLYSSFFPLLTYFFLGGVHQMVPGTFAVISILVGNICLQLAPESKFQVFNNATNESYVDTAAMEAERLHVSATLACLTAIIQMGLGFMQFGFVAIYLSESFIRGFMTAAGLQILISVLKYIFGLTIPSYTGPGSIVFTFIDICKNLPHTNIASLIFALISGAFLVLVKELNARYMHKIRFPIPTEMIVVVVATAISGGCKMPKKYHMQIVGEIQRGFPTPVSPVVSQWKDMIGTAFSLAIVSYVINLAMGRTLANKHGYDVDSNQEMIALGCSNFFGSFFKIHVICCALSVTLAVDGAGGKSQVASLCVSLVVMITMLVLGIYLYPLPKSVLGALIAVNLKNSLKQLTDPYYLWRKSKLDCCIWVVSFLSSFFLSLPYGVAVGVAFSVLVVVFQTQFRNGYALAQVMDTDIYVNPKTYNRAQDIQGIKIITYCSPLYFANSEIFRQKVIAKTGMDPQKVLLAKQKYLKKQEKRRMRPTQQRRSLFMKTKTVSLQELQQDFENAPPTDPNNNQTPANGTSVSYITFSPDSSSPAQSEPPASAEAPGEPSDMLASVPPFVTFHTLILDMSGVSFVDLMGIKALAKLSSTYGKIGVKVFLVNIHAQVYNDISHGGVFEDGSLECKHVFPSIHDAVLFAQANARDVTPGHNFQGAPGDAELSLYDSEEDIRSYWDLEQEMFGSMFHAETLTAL
Assay: Selectivity: Cl-/I- exchange in FRT cells coexpressing YFP and SLC26A9
Format: cell-based
Details: 25 μM
Experimental: PAT1inh-B01 selectivity was studied by testing its effects on related SLC26A family anion transporters and the Cl^– channel TMEM16A. These measurements used a similar Cl^–/I^– exchange protocol, but FRT cells separately expressed each of the SLC26A family members or TMEM16A. […] PAT1inh-B01 selectivity was also tested by short-circuit current (Isc) in well-differentiated human bronchial epithelial (HBE) cells, which have a complex ion transport mechanism that includes cystic fibrosis transmembrane conductance regulator (CFTR), epithelial Na^+ channel (ENaC), and Ca^+2-activated chloride channels (CaCCs) ([13]). […] Potential PAT1inh-B01 cytotoxicity was studied in FRT cells.
Figure 3 PAT1inh-B01 selectivity and cytotoxicity. […] Cl^–/I^– exchange or I^– influx measured in FRT cells coexpressing YFP and SLC26A isoforms or TMEM16A, with data shown for 25 μM PAT1inh-B01, DMSO vehicle control, and 500 μM niflumic acid (positive control for SLC26A transporters) or 10 μM TMinh-23 (positive control for TMEM16A). […] (C) (left) Short-circuit current (Isc) in well-differentiated HBE cells measured in the absence (top) and presence (bottom) of 25 μM PAT1inh-B01. […]
YFP-based cellular assays of slc26a3, slc26a4, SLC26A9, and TMEM16A function were performed as described previously ([7]). […] The activities of ENaC, CFTR, and CaCC were determined using well-differentiated HBE cells as described previously ([13]). […]

For `Cc1c(Br)c(C(F)(F)F)nn1CC(=O)N1CCc2nc3cc(-c4ccccc4)[nH]n3c(=O)c2C1` [PAT1inh-B01], the “inhibition of SLC26A9” value was “did not significantly inhibit”.
